Measurements published in the CombiSolv-Exp solvation set (Vermeire and Green 2021).

Experiment: solvent given as SMILES

CCCC
Settings	solvation free energy, 298 K [kcal/mol]
in C1CCC2CCCCC2C1	-2.25
in C1COCCO1	-2.13
in CC1COC(=O)O1	-1.19
in CC#N	-1.49
in CC(=O)N(C)C	-1.75
in CC(C)(C)O	-2.07
in CC(C)=O	-2.13
in CC(C)CCO	-2.02
in CC(C)CO	-2.03
in CC(C)O	-2.03
in CC(CC(C)(C)C)CC(C)(C)CC(C)(C)C	-2.97
in CCC(C)(C)O	-2.16
in CCC(C)=O	-2.31
in CCC(C)CO	-2.03
in CCC(O)CC	-2.07
in CCCC(C)O	-2.03
in CCCCC	-2.61
in CCCCCC	-2.55
in CCCCCCC	-2.54
in CCCCCCCC	-2.49
in CCCCCCCCC	-2.43
in CCCCCCCCCC	-2.43
in CCCCCCCCCCCC	-2.32
in CCCCCCCCCCCCC	-2.31
in CCCCCCCCCCCCCC	-2.23
in CCCCCCCCCCCCCCC	-2.24
in CCCCCCCCCCCCCCCC	-2.21
in CCCCCCCCO	-2.09
in CCCCCCCO	-1.96
in CCCCCO	-2.03
in CCCCO	-1.87
in CCCCOCCCC	-2.44
in CCCO	-1.98
in CCO	-1.91
in CN1CCCC1=O	-1.56
in CN(C)C=O	-1.47
in CN(C)P(=O)(N(C)C)N(C)C	-1.85
in CO	-1.73
in COC(C)=O	-1.95
in COCCOCCO	-1.36
in COCCOCCOC	-1.89
in COCCOCCOCCOC	-1.64
in COCCOCCOCCOCCOC	-1.62
in CS(C)=O	-0.99
in Cc1ccc(C)cc1	-2.33
in Cc1cccc(C)c1	-2.34
in Cc1ccccc1C	-2.31
in ClC(Cl)(Cl)Cl	-2.67
in Clc1ccccc1	-2.32
in Ic1ccccc1	-2.05
in N#Cc1ccccc1	-1.93
in NC=O	-0.12
in Nc1ccccc1	-1.4
in O	2.07
in O=CN1CCOCC1	-0.91
in OC1CCCCC1	-1.8
in OCCCOCCCO	-1.24
in OCCO	-0.29
in OCc1ccccc1	-1.51
in c1ccccc1	-2.39

CCCCCC(N)=O
Settings	solvation free energy, 298 K [kcal/mol]
in O	-9.31

Nc1ccc(N)c2c1C(=O)c1ccccc1C2=O
Settings	solvation free energy, 298 K [kcal/mol]
in O	-11.8

COc1ccccc1C(=O)O
Settings	solvation free energy, 298 K [kcal/mol]
in C1CCOC1	-11.8
in C1COCCO1	-11.7
in CC(C)(C)O	-11
in CC(C)CCO	-10.8
in CC(C)CO	-10.9
in CC(C)O	-10.9
in CC(C)OCCO	-11.2
in CC(O)COC(C)(C)C	-11
in CCC(C)O	-11
in CCCC(C)O	-10.8
in CCCCCCCCCCO	-10.5
in CCCCCCCO	-10.8
in CCCCCCO	-10.8
in CCCCCO	-10.9
in CCCCCOC(C)=O	-10.6
in CCCCO	-11.1
in CCCCOC(C)=O	-10.8
in CCCCOCCO	-11.4
in CCCO	-11.2
in CCCOCCO	-11.3
in CCO	-11.5
in CCOC(C)=O	-11.2
in CCOCC	-10.5
in CCOCCO	-11.5
in CO	-11.8
in COC(C)=O	-11.3
in COC(C)CCO	-11.4

CCCCCCCCCCCCCCCCCC
Settings	solvation free energy, 298 K [kcal/mol]
in CC(=O)N(C)C	-12.1
in CCCCCCCCC=CCCCCCCCC(=O)OCC(COC(=O)CCCCCCCC=CCCCCCCCC)OC(=O)CCCCCCCC=CCCCCCCCC	-12.4
in CCCCOC(C)=O	-11.9
in CCO	-10.3
in O	4.15

CS(C)=O
Settings	solvation free energy, 298 K [kcal/mol]
in CCCCCCCCCCCCCCCC	-4.14
in CCOC(C)=O	-6.66

C1CNCCN1
Settings	solvation free energy, 298 K [kcal/mol]
in O	-7.4

Clc1ccc(-c2ccc(Cl)cc2)cc1
Settings	solvation free energy, 298 K [kcal/mol]
in CCCCCCCCC=CCCCCCCCC(=O)OCC(COC(=O)CCCCCCCC=CCCCCCCCC)OC(=O)CCCCCCCC=CCCCCCCCC	-10.9
in CCCCCCCCO	-10.7
in O	-2.91

CCCCCCCCCCOC(=O)c1ccccc1C(=O)OCCCCCCCCCC
Settings	solvation free energy, 298 K [kcal/mol]
in O	-6.22

COC(=O)c1ccc(Cl)c(Cl)c1
Settings	solvation free energy, 298 K [kcal/mol]
in CN(C)C=O	-9.19
in O	-3.75

CN(C)C(=O)c1ccccc1
Settings	solvation free energy, 298 K [kcal/mol]
in O	-9.29

CCS
Settings	solvation free energy, 298 K [kcal/mol]
in CC(C)CC(C)(C)C	-3.13
in CO	-3
in O	-1.07
in OCCOCCOCCOCCO	-2.7

ClCCCCCl
Settings	solvation free energy, 298 K [kcal/mol]
in CC(C)=O	-6.56
in O	-2.32

C#CCCCCCC
Settings	solvation free energy, 298 K [kcal/mol]
in CN1CCCC1=O	-4.98
in CN(C)C=O	-4.99
in CS(C)=O	-4.42
in N#CCCCCC#N	-4.31
in NCCO	-3.17
in O	0.71

CC(C)COCC(C)C
Settings	solvation free energy, 298 K [kcal/mol]
in CCCCCCCCCCCCCCCC	-4.72
in CCCCCCCCO	-4.62

CNC(=O)Oc1cccc2ccccc12
Settings	solvation free energy, 298 K [kcal/mol]
in CCCCCCCCC=CCCCCCCCC(=O)OCC(COC(=O)CCCCCCCC=CCCCCCCCC)OC(=O)CCCCCCCC=CCCCCCCCC	-12.6

Clc1ccc(-c2ccc(Cl)c(Cl)c2Cl)cc1Cl
Settings	solvation free energy, 298 K [kcal/mol]
in CCCCCCCCO	-12.9

CC(C)(C)CCO
Settings	solvation free energy, 298 K [kcal/mol]
in CCCCCCCC	-4.85
in CCCCCCCCCC	-4.72

CC(C)C
Settings	solvation free energy, 298 K [kcal/mol]
in C1CCC2CCCCC2C1	-2
in CC1COC(=O)O1	-0.87
in CC(C)(C)O	-1.86
in CC(C)=O	-1.87
in CC(C)CCO	-1.8
in CC(C)CO	-1.8
in CC(C)O	-1.9
in CCC(C)(C)O	-1.92
in CCC(C)CO	-1.8
in CCC(C)O	-1.79
in CCC(O)CC	-1.83
in CCCC(C)O	-1.8
in CCCCC	-2.38
in CCCCCC	-2.33
in CCCCCCC	-2.31
in CCCCCCCC	-2.3
in CCCCCCCCC	-2.2
in CCCCCCCCCC	-2.23
in CCCCCCCCCCCCCCCC	-1.91
in CCCCCCCO	-1.68
in CCCCCO	-1.79
in CCCCO	-1.91
in CCCO	-1.77
in CCO	-1.64
in CCOC(C)=O	-2.16
in CCOCC	-2.33
in CN1CCCC1=O	-1.2
in CN(C)C=O	-1.32
in CN(C)P(=O)(N(C)C)N(C)C	-1.53
in CO	-1.46
in COCCOCCOCCOC	-1.18
in CS(C)=O	-0.53
in Cc1ccc(C)cc1	-2.06
in Cc1cccc(C)c1	-2.07
in Cc1ccccc1C	-2.04
in ClC(Cl)(Cl)Cl	-2.37
in Clc1ccccc1	-2.25
in Nc1ccccc1	-1.07
in O	2.32
in O=CN1CCOCC1	-0.64
in OC1CCCCC1	-1.55
in OCCCOCCCO	-0.87
in OCCO	-0.19
in OCc1ccccc1	-1.16
in c1ccccc1	-2.08

c1ccc2c(c1)cc1ccc3cccc4ccc2c1c34
Settings	solvation free energy, 298 K [kcal/mol]
in CCCCCCCCC=CCCCCCCCC(=O)OCC(COC(=O)CCCCCCCC=CCCCCCCCC)OC(=O)CCCCCCCC=CCCCCCCCC	-16.7

CCN(CC)CC
Settings	solvation free energy, 298 K [kcal/mol]
in Brc1ccccc1	-4.47
in C1CCOC1	-4.59
in C1COCCO1	-4.06
in CC1COC(=O)O1	-2.89
in CC#N	-3.66
in CC(=O)c1ccccc1	-3.93
in CC(C)(C)O	-4.38
in CC(C)=O	-4.05
in CC(C)CCO	-4.88
in CC(C)O	-4.55
in CC(Cl)(Cl)Cl	-4.63
in CCC#N	-4.03
in CCC(C)=O	-4.16
in CCC(C)O	-4.82
in CCCCCC	-4.49
in CCCCCCC	-4.47
in CCCCCCCCCCCCCCCC	-3.99
in CCCCCO	-4.97
in CCCCCl	-4.57
in CCCCO	-4.85
in CCCO	-4.82
in CCO	-4.87
in CCOC(=O)c1ccccc1	-4.06
in CCOC(C)=O	-4.23
in CCOCC	-4.45
in CN(C)C=O	-3.57
in CO	-5.24
in Cc1ccc(C)cc1	-4.52
in Cc1ccccc1	-4.66
in ClC1CCCCC1	-4.29
in ClC(Cl)(Cl)Cl	-4.82
in ClC(Cl)C(Cl)Cl	-5.86
in ClC(Cl)Cl	-5.61
in ClCCCl	-4.38
in ClCCl	-4.98
in Clc1ccccc1	-4.56
in Ic1ccccc1	-4.33
in N#Cc1ccccc1	-4.05
in O	-3.22
in O=C1CCCCC1	-4.11
in c1ccccc1	-4.6

CCCCCCCCCCCCCCCCCCCCO
Settings	solvation free energy, 298 K [kcal/mol]
in CC(C)O	-16.2
in CCCCCCCCCCO	-16.4
in CCCCCCCCO	-16.4
in CCCCCCO	-16.5

CCC(=O)Nc1ccc(Cl)c(Cl)c1
Settings	solvation free energy, 298 K [kcal/mol]
in O	-7.78

NCCc1ccc(O)cc1
Settings	solvation free energy, 298 K [kcal/mol]
in C=CCCCCCCC=C	-10
in O	-11.8

CC=Cc1ccc(O)c(OC)c1
Settings	solvation free energy, 298 K [kcal/mol]
in O	-6.33

C=CC1(C)CCC(C(=C)C)CC1C(=C)C (stereo unspecified)
Settings	solvation free energy, 298 K [kcal/mol]
in O	-0.42

CCCCC=O
Settings	solvation free energy, 298 K [kcal/mol]
in CC(C)CC(C)(C)C	-4.24
in CCCCCCCC	-3.97
in CN1CCCC1=O	-4.67
in CO	-4.87
in NC=O	-3.77
in O	-3.01
in O=CN1CCOCC1	-4.49
in [2H]O[2H]	-2.89
